{
  "source": "patent US9381143B2",
  "about": "“Use of substituted methoxyalkoxyphenylalkyl derivatives as preservative, preserving method, compounds and composition” (L'OREAL, priority 2010, dated 2016)",
  "assay_in_all_cases": "Challenge Test (artificial contamination) of cosmetic formula",
  "format_in_all_cases": "cell-based",
  "key": {"[1]": {"tested_on": "Aspergillus niger (An) ATCC 6275", "conditions": "2% compound in cosmetic formula, inoculum approx. 10^6 CFU/g", "description": "(§1) The antimicrobial efficacy of a compound of formula (I) was evaluated by the Challenge Test or artificial contamination method.\n(§2) The challenge test method consists of an artificial contamination of the sample with microbial strains from collection (bacteria, yeasts and moulds) and of an evaluation of the number of revivable microorganisms seven days after inoculation.\n(§3) 5 pure cultures of microorganisms are used.\n(§4) The gram−bacterial strains (Escherichia coli and Pseudomonas aeruginosa), the gram+bacterial strain (Enterococcus faecalis), the yeast strain (Candida albicans), and the mould strain (Aspergillus niger) are inoculated into subculturing medium, respectively the day before inoculation for the bacteria and the yeast, and 5 days before inoculation for the mould.\n(§5) On the day of inoculation: • a suspension in tryptone salt diluent is prepared respectively for the bacteria and the yeast in such a way as to obtain, on a spectrophotometer, a suspension having an optical density between 35% and 45% of transmitted light at 544 nm; • for the mould, the spores are taken by washing the agar with 6 to 7 ml of harvesting solution and the suspension is recovered in a sterile flask or tube.\n(§6) After having homogenized the microbial suspension, 0.2 ml of inoculum (the suspensions are used pure: between 1×10^8 and 3×10^8 CFU per ml) are placed in each pill bottle and the microbial suspension is completely homogenized in the 20 g of product (=cosmetic formula) using a spatula.\n(§7) The amount of microorganisms present in the product corresponds, after homogenization, to a concentration of 10^6 microorganisms per gram of product, i.e. the inoculation at 1% of an inoculum containing 10^8 microorganisms per ml. After 7 or 14 days of contact time between the microorganisms and the product at 22° C.±2° C. and in the dark, ten-fold dilutions are carried out and the number of revivable microorganisms remaining in the product is counted."}, "[2]": {"tested_on": "Pseudomonas aeruginosa (Pa) ATCC 19429", "conditions": "2% compound in cosmetic formula; inoculum approx. 10^6 CFU/g; 7 days at 22° C. in the dark; <200 CFU = sensitivity threshold", "description": "as §1, §2, §3, §4, §5, §6, §7"}, "[3]": {"tested_on": "Enterococcus faecalis (Ef) ATCC 33186", "conditions": "2% compound in cosmetic formula, inoculum approx. 10^6 CFU/g", "description": "as §1, §2, §3, §4, §5, §6, §7"}, "[4]": {"tested_on": "Escherichia coli (Ec) ATCC 8739", "conditions": "2% compound in cosmetic formula; inoculum approx. 10^6 CFU/g; 7 days at 22° C. in the dark; <200 CFU = sensitivity threshold", "description": "as §1, §2, §3, §4, §5, §6, §7"}, "[5]": {"tested_on": "Candida albicans (Ca) ATCC 10231", "conditions": "2% compound in cosmetic formula; inoculum approx. 10^6 CFU/g; 7 days at 22° C. in the dark; <200 CFU = sensitivity threshold", "description": "as §1, §2, §3, §4, §5, §6, §7"}},
  "data": [
    {"smiles": "COc1ccc(CCC(C)=O)cc1OC", "values": [
      {"measurement": "Number of CFU/gram of product at T = 7 days, A. niger", "setting": "[1]; 7 days at 22° C. in the dark", "result": "1.4 · 10^6 CFU/gram of product"},
      {"measurement": "Number of CFU/gram of product at T = 14 days, A. niger", "setting": "[1]; 14 days at 22° C. in the dark", "result": "3.6 · 10^5 CFU/gram of product"},
      {"measurement": "Number of CFU/gram of product at T = 7 days, P. aeruginosa", "setting": "[2]", "result": "<200 CFU/gram of product"},
      {"measurement": "Number of CFU/gram of product at T = 7 days, E. faecalis", "setting": "[3]; 7 days at 22° C. in the dark", "result": "7.3 · 10^5 CFU/gram of product"},
      {"measurement": "Number of CFU/gram of product at T = 14 days, E. faecalis", "setting": "[3]; 14 days at 22° C. in the dark", "result": "3.3 · 10^8 CFU/gram of product"},
      {"measurement": "Number of CFU/gram of product at T = 7 days, E. coli", "setting": "[4]", "result": "<200 CFU/gram of product"},
      {"measurement": "Number of CFU/gram of product at T = 7 days, C. albicans", "setting": "[5]", "result": "<200 CFU/gram of product"}
    ]}
  ]
}
